These results are taken from EPA's ToxRefDB 2.

Series [1] concerns mouse. Conditions: Prenatal developmental toxicity study, other, Injection, Intraperitoneal, dose end: 15 GD.
For series [2], the system named is rat. The settings on record: Fertility (Segment I); wistar; Injection; Subcutaneous; group: parental; systemic / organ weight / prostate / nos.
Series [3] deals with mouse. Conditions: Carcinogenicity; cd1; Oral; Feed; dose end: 18 month; group: systemic; systemic / in life observation / body weight / body weight + systemic / in life observation / body weight / body weight gain + systemic / in….
Series [4] deals with dog. The settings on record: Subchronic oral toxicity in nonrodent, beagle, Feed, dose end: 6 month, group: systemic.
In series [5] the test system is dog. The settings on record: Chronic toxicity; beagle; Oral; Feed; dose end: 52 week; group: systemic; systemic / in life observation / body weight / body weight gain.
The subject of series [6] is dog. The settings on record: Subchronic oral toxicity in nonrodent, beagle, Feed, dose end: 6 month, group: systemic. This is another data set of the same source.
In series [7] the test system is rat. Conditions: Prenatal developmental toxicity study, sprague dawley, Oral, Gavage/Intubation, dose end: 15 GD.
Series [8] deals with rat. Conditions: Subchronic oral toxicity in rodents, sprague dawley, Feed, dose end: 3 month, group: systemic, systemic / clinical chemistry / glucose / glucose + systemic / hematology / erythrocyte (rbc) count differential / erythrocyte (rbc) + ….
In a further series the test system is rabbit. The settings on record: Prenatal developmental toxicity study, new zealand white, Oral, Gavage/Intubation, dose end: 19 GD, group: maternal.
Series [9] deals with rat. Conditions: Prenatal developmental toxicity study, other, Oral, Gavage/Intubation, dose end: 15 GD.
The test system of series [10] is dog. The settings on record: Subchronic oral toxicity in nonrodent, beagle, Feed, dose end: 15 week, group: systemic, systemic / organ weight / liver / absolute + systemic / organ weight / liver / relative to body weight + systemic / pathology microscopic / ….
Setting [11] is: group: developmental, developmental / developmental malformation / bone / misshapen + developmental / developmental malformation / bone / short + developmental / ….
The mark [12] stands for this setting: group: maternal, reproductive / reproductive performance / resorptions / resorptions.
The mark [13] stands for this setting: systemic / in life observation / body weight / body weight gain.
Setting [14] is: systemic / in life observation / body weight / body weight gain + systemic / in life observation / food consumption / food consumption.
Where [15] appears, read: group: developmental, systemic / in life observation / body weight / fetal weight.
Setting [16] is: group: maternal, reproductive / reproductive performance / implantations / implantations + systemic / in life observation / body weight / body weight gain + ….
Setting [17] is: systemic / in life observation / clinical signs / tremors.
The mark [18] stands for this setting: systemic / in life observation / clinical signs / tremors + reproductive / reproductive performance / aborted / aborted + systemic / ….
[19] abbreviates: group: developmental, developmental / developmental malformation / bone / incomplete ossification + systemic / in life observation / body weight / fetal weight.
Where [20] appears, read: group: maternal, systemic / hematology / hematocrit (hct) / hematocrit (hct) + systemic / hematology / hemoglobin (hgb) / hemoglobin (hgb) + systemic / ….

The term LOAEL denotes the lowest tested level that showed an adverse finding. As usually defined, the NOAEL is the highest tested level that showed no adverse finding.

`NC(=O)N1c2ccccc2C=Cc2ccccc21` [Carbamazepine]: in the series on mouse [1] (setting [11]), the LEL came to 15 mg/kg/day, the lowest observed adverse effect level (LOAEL) is > 30 mg/kg/day, the NEL is < 15 mg/kg/day and the NOAEL was ≥ 30 mg/kg/day. For the same compound, in the series with mouse [1] (setting [12]), the LEL turned out to be 15 mg/kg/day, the LOAEL was > 30 mg/kg/day, the NEL was < 15 mg/kg/day and the no-observed-adverse-effect level (NOAEL) was ≥ 30 mg/kg/day. For the same compound, in the series on rat [2], the LEL was found to be 20 mg/kg/day, the LOAEL was > 20 mg/kg/day, the NEL was < 20 mg/kg/day and the no-observed-adverse-effect level (NOAEL) was ≥ 20 mg/kg/day.

As for `CCc1cccc(C)c1N(C(=O)CCl)C(C)COC` (stereo unspecified) [Metolachlor], the LEL with mouse [3] was found to be 450 mg/kg/day; with dog [4] (setting [14]), 29.4 mg/kg/day; in the series with dog [5] it was 33 mg/kg/day; in the series with dog [6] (setting [14]), 29.4 mg/kg/day; with rat [7] (setting [15]), 1000 mg/kg/day; in the series with rat [7] (group: maternal, systemic / in life observation / clinical signs / salivation), 300 mg/kg/day. Further, the LOAEL with mouse [3] stood at 450 mg/kg/day; in the series with dog [4] (setting [13]), 29.4 mg/kg/day; with dog [5], 33 mg/kg/day; in the series on dog [6] (setting [13]), 29.4 mg/kg/day; in the series on rat [7] (setting [15]) it was 1000 mg/kg/day; in the series on rat [7] (setting [16]), 1000 mg/kg/day. Besides, the NEL in the series on mouse [3] was found to be 150 mg/kg/day; in the series on dog [4] (setting [14]), 8.77 mg/kg/day; in the series with dog [5], 9.7 mg/kg/day; in the series with dog [6] (setting [14]), 8.77 mg/kg/day; in the series on rat [7] (setting [15]) it was 300 mg/kg/day; in the series on rat [7] (setting [16]) it was 100 mg/kg/day. Further, the NOAEL with mouse [3] was found to be 150 mg/kg/day; in the series with dog [4] (setting [14]) it was 8.77 mg/kg/day; in the series on dog [5], 9.7 mg/kg/day; in the series on dog [6] (setting [14]), 8.77 mg/kg/day; with rat [7] (setting [15]), 300 mg/kg/day; with rat [7] (setting [16]), 300 mg/kg/day.

`CC(C)(C)N(NC(=O)c1ccc(Cl)cc1)C(=O)c1ccccc1` [Halofenozide]: the LEL was found to be 52.7 mg/kg/day with rat [8]; 20 mg/kg/day in the series with rabbit (setting [17]); 180 mg/kg/day in the series on rat [9] (setting [19]); 180 mg/kg/day in the series with rat [9] (setting [20]); 11.5 mg/kg/day in the series with dog [10]. For the same compound, the LOAEL in the series on rat [8] was 52.7 mg/kg/day; with rabbit (setting [17]), 20 mg/kg/day; in the series on rat [9] (setting [19]), 180 mg/kg/day; in the series on rat [9] (setting [20]) it was 180 mg/kg/day; in the series with dog [10] it was 11.5 mg/kg/day. Besides, the NEL turned out to be 5.53 mg/kg/day in the series with rat [8]; 10 mg/kg/day in the series with rabbit (setting [18]); 30 mg/kg/day in the series with rat [9] (setting [19]); 30 mg/kg/day in the series on rat [9] (setting [20]); 4 mg/kg/day in the series on dog [10]. The no observed adverse effect level (NOAEL) in the series on rat [8] amounted to 5.53 mg/kg/day; with rabbit (setting [18]), 10 mg/kg/day; in the series with rat [9] (setting [19]), 30 mg/kg/day; in the series with rat [9] (setting [20]) it was 30 mg/kg/day; in the series with dog [10], 4 mg/kg/day.
